Laboratory results taken from PMC4640066 (Nature Communications, 2015).

Biological target: T1, γ-TuSC (Saccharomyces cerevisiae, UniProt P53378)
T1 construct: made in house; host or cells: HighFive insect cells
T1 sequence (P53378 1-473): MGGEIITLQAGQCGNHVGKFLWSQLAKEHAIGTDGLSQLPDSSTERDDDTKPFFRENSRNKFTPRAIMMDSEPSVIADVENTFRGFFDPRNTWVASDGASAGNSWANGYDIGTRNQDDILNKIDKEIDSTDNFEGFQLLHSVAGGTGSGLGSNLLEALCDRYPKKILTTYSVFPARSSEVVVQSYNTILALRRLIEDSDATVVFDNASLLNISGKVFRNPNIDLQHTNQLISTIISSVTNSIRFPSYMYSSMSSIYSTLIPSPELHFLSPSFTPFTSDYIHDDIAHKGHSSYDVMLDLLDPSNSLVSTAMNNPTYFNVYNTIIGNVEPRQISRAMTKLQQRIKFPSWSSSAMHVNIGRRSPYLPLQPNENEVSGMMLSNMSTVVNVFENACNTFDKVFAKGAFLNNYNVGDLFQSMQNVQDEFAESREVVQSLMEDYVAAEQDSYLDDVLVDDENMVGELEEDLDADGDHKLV
T1 sequence (P38863 1-823 partner): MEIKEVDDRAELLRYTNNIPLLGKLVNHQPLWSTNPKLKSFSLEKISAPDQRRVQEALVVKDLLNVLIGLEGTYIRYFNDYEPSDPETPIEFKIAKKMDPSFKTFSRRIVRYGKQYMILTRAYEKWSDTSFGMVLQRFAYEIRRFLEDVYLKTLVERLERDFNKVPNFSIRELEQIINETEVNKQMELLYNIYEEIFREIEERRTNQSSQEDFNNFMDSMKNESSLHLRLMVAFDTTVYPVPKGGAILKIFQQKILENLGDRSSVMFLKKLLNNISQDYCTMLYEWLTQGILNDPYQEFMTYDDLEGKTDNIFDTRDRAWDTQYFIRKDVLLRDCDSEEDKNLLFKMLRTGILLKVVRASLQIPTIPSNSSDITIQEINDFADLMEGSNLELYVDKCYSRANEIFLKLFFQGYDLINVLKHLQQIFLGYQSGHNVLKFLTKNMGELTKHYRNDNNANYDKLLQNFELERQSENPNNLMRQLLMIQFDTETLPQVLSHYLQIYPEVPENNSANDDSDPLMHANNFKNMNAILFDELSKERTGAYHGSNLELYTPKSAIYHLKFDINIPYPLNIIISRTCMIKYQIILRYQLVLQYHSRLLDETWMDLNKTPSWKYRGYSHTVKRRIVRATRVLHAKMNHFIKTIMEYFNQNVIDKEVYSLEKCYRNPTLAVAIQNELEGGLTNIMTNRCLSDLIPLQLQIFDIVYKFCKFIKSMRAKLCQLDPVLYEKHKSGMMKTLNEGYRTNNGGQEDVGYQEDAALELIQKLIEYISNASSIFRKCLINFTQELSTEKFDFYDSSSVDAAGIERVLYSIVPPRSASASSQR
T1 sequence (P53540 1-846 partner): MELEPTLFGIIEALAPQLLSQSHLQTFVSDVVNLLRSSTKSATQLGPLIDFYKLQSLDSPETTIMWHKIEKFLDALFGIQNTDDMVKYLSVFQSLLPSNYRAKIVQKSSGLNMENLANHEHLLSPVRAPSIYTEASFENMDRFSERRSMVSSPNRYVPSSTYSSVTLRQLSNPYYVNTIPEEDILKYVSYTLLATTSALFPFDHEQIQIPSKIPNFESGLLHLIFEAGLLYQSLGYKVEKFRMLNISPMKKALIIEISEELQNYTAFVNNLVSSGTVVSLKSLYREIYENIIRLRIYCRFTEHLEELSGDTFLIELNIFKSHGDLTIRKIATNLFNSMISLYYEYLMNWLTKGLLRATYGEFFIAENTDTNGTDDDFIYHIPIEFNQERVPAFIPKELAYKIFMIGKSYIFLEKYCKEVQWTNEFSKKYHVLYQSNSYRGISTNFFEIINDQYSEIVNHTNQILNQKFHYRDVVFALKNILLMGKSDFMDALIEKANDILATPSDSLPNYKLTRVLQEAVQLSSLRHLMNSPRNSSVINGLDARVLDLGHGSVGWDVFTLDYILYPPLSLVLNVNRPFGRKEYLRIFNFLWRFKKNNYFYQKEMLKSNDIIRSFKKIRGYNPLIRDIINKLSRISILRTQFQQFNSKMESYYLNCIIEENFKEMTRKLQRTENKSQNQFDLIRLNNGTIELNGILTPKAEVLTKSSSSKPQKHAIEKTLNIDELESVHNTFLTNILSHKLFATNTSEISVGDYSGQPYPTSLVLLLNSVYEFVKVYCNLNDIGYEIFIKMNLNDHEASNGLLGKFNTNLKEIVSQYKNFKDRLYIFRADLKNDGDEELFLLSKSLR
Test: γ-TuSC capping to paclitaxel-stabilized MTs
Format: biochemical
Conditions: 50 μM
Procedure: γ-TuSC was diluted in RB buffer containing 10 μM paclitaxel to reach a final protein concentration of 0.5 μM and incubated with 50 μM of gatastatin for 30 min at 25 °C. Polymerized MTs were prepared by incubation of ∼5 mg ml^−1 α/β-tubulin for 30 min at 37 °C with 1 mM GTP; then paclitaxel was added (final 10 μM). GTP was removed from paclitaxel-stabilized MTs with ultracentrifugation at 240,000g for 10 min at 25 °C. Paclitaxel-stabilized MTs were added to γ-TuSC (final ∼1.2 mg ml^−1). Next, γ-TuSC was incubated with paclitaxel-stabilized MTs for 30 min; MTs and MT-bound γ-TuSC were collected with ultracentrifugation at 240,000g for 10 min at 25 °C and finally placed on poly-L-lysine-coated coverslips. After incubation for 15 min, coverslips were immediately fixed with cold MeOH (−20 °C). Coverslips were blocked with PBS containing 0.5% bovine serum albumin and were incubated with anti-α-tubulin (1:200 dilution, MBL, Cat# PM054) and anti-penta His (1:200 dilution, Qiagen, Cat# 34660) antibodies. After staining with Alexa^488-conjugated anti-rabbit IgG (1:2000 dilution, Invitrogen) and Alexa^568-conjugated anti-mouse IgG (1:2000 dilution, Invitrogen), the coverslips were washed four times with PBS and mounted with PBS. γ-TuSC bound to MTs was observed under a LAS AF 6000 fluorescence microscope (Leica Microsystems, Wetzlar, Germany).

Effect on γ-TuSC binding to MT ends: impaired γ-TuSC binding to MT ends
Compound: COc1cc2c(=O)c(-c3cc(OC)c4c(c3OC)OCO4)coc2cc1OCc1ccccc1 [Gatastatin, O^7-demethylbenzyl AG1]
